Test results reported in article PMC10233829 (ACS Omega, 2023).
In brackets after ≈: the same amount, converted by molar mass.

Key:
E. coli 600 = assay: MIC, twofold microdilution, clinical strain; format: cell-based, Escherichia coli; conditions: Escherichia coli, 600, 18 h
S. aureus ATCC 6538 = assay: MIC, twofold microdilution, standard strain; format: cell-based, Staphylococcus aureus; conditions: Staphylococcus aureus, ATCC6538; standard strain, 18 h
P. aeruginosa 37 = assay: MIC, twofold microdilution, clinical strain; format: cell-based; conditions: Pseudomonas aeruginosa, 18 h
M. tuberculosis H37Rv = assay: Tuberculostatic activity, Microplate Alamar Blue Assay (MIC); format: cell-based, Mycobacterium tuberculosis; conditions: Mycobacterium tuberculosis, H37RV; MABA; read-out: MIC M. tuberculosis H37Rv
S. aureus T5595 = assay: MIC, twofold microdilution, clinical strain; format: cell-based, Staphylococcus aureus; conditions: Staphylococcus aureus, T5595, 18 h
[1] = tested on: S. epidermidis ATCC 12228; assay: MIC, twofold microdilution, standard strain; format: cell-based; conditions: Staphylococcus epidermidis, ATCC12228, 18 h
K. pneumoniae 510 = assay: MIC, twofold microdilution, clinical strain; format: cell-based, Klebsiella pneumoniae; conditions: Klebsiella pneumoniae, 510; clinical strain, 18 h
E. coli 520 = assay: MIC, twofold microdilution, clinical strain; format: cell-based; conditions: Escherichia coli, 18 h
S. aureus T5591 = assay: MIC, twofold microdilution, clinical strain; format: cell-based, Staphylococcus aureus; conditions: Staphylococcus aureus, T5591, 18 h
E. coli ATCC 25922 = assay: MIC, twofold microdilution, standard strain; format: cell-based, Escherichia coli; conditions: Escherichia coli, ATCC25922; standard strain, 18 h
[2] = tested on: clinical bacterial strains; assay: MIC, clinical isolates as groups of strains; format: cell-based; conditions: S. aureus T5595 and T5591
S. epidermidis 4341 = assay: MIC, twofold microdilution, clinical strain; format: cell-based; conditions: Staphylococcus epidermidis, 18 h
[3] = tested on: S. epidermidis ATCC 35984; assay: MIC, twofold microdilution, standard strain; format: cell-based; conditions: Staphylococcus epidermidis, ATCC35984, 18 h
S. epidermidis KR4243/1 = assay: MIC, twofold microdilution, clinical strain; format: cell-based; conditions: Staphylococcus epidermidis, 18 h
P. aeruginosa 659 = assay: MIC, twofold microdilution, clinical strain; format: cell-based; conditions: Pseudomonas aeruginosa, 18 h
[4] = MTT assay, cytotoxic activity; format: cell-based; conditions: human, HaCaT cells (immortal keratinocytes); MTT, 72 h, normal cell line; read-out: IC50 HaCaT
Procedure, shortened: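 Viability was calculated as A/B × 100%, with A the absorbance of treated samples and B that of untreated controls, from MTT reduction. Cells were cultured in a humidified 37 °C/5% CO2 incubator.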

K. pneumoniae 28 = assay: MIC, twofold microdilution, clinical strain; format: cell-based; conditions: Klebsiella pneumoniae, 18 h
S. epidermidis 5253 = assay: MIC, twofold microdilution, clinical strain; format: cell-based, Staphylococcus epidermidis; conditions: Staphylococcus epidermidis, 5253, 18 h
S. pasteuri KR 4358 = assay: MIC, twofold microdilution, clinical strain; format: cell-based; conditions: Staphylococcus pasteuri, KR4358, 18 h
S. aureus 5595 = assay: MIC, twofold microdilution, clinical strain; format: cell-based; conditions: Staphylococcus aureus, 18 h
S. aureus 180 = assay: MIC, twofold microdilution, clinical strain; format: cell-based; conditions: Staphylococcus aureus, 18 h
S. aureus ATCC 29213 = assay: MIC, twofold microdilution, standard strain; format: cell-based; conditions: Staphylococcus aureus, ATCC29213, 18 h
[5] = tested on: M. tuberculosis Spec. 192; assay: Tuberculostatic activity, Microplate Alamar Blue Assay (MIC); format: cell-based; conditions: Mycobacterium tuberculosis, MABA, read-out: MIC M. tuberculosis Spec. 192 (sensitive to tuberculostatics)
E. cloacae 8 = assay: MIC, twofold microdilution, clinical strain; format: cell-based, Escherichia cloacae; conditions: Enterobacter cloacae, 8; clinical strain, 18 h
S. aureus ATCC 25923 = assay: MIC, twofold microdilution, standard strain; format: cell-based; conditions: Staphylococcus aureus, ATCC25923, 18 h
P. aeruginosa ATCC 15442 = assay: MIC, twofold microdilution, standard strain; format: cell-based, Pseudomonas aeruginosa; conditions: Pseudomonas aeruginosa, ATCC15442; standard strain, 18 h
PC3 cells = assay: MTT assay, cytotoxic activity; format: cell-based, human; conditions: Homo sapiens, PC-3, 72 h, MTT, 72 h
Procedure, shortened: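 Cytotoxicity readout: relative MTT level (%), i.e. absorbance of compound-treated PC3 cells divided by that of untreated controls, ×100. Cultures were kept in a humidified 37 °C, 5% CO2 incubator.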

S. aureus NCTC 4163 = assay: MIC, twofold microdilution, standard strain; format: cell-based; conditions: Staphylococcus aureus, NCTC4163, 18 h
E. coli 951 = assay: MIC, twofold microdilution, clinical strain; format: cell-based; conditions: Escherichia coli, 18 h

SMILES: O=C(O)c1cn(C2CC2)c2cc(N3CCN(C(=O)CCC(F)(F)F)CC3)c(F)cc2c1=O [Compound 15, 7-[4-(4,4,4-Trifluorobutyryl)-piperazin-1-yl]-1-cyclopropyl-6-fluoro-4-oxo-1,4-dihydro-quinoline-3-carboxylic Acid]
- MIC (E. coli 600): 3.2 µg/mL (≈ 7.03 µM)
- MIC (S. aureus ATCC 6538): 0.2 µg/mL (≈ 0.439 µM)
- MIC (P. aeruginosa 37): > 25.6 µg/mL
- MIC (M. tuberculosis H37Rv): 64 µg/mL (≈ 141 µM)
- MIC (S. aureus T5595): 0.4 µg/mL (≈ 0.878 µM)
- MIC [1]: 0.2 µg/mL (≈ 0.439 µM)
- MIC (K. pneumoniae 510): > 25.6 µg/mL
- MIC (E. coli 520): 3.2 µg/mL (≈ 7.03 µM)
- MIC (S. aureus T5591): 0.4 µg/mL (≈ 0.878 µM)
- MIC (E. coli ATCC 25922): 1.6 µg/mL (≈ 3.51 µM)
- share of the reference (CP) activity [2]: 62.5%
- MIC (S. epidermidis 4341): > 25.6 µg/mL
- MIC [3]: 0.2 µg/mL (≈ 0.439 µM)
- MIC (S. epidermidis KR4243/1): 0.2 µg/mL (≈ 0.439 µM)
- MIC (P. aeruginosa 659): > 25.6 µg/mL
- IC50 at 72 h [4]: 85.5 ± 9.2 µM
- MIC (K. pneumoniae 28): > 25.6 µg/mL
- MIC (S. epidermidis 5253): > 25.6 µg/mL
- MIC (S. pasteuri KR 4358): 0.2 µg/mL (≈ 0.439 µM)
- MIC (S. aureus 5595): 0.5 µg/mL (≈ 1.1 µM)
- MIC (S. aureus 180): 0.5 µg/mL (≈ 1.1 µM)
- MIC (S. aureus ATCC 29213): 0.2 µg/mL (≈ 0.439 µM)
- MIC [5]: 64 µg/mL (≈ 141 µM)
- MIC (E. cloacae 8): > 25.6 µg/mL
- MIC (S. aureus ATCC 25923): 0.2 µg/mL (≈ 0.439 µM)
- MIC (P. aeruginosa ATCC 15442): 1 µg/mL (≈ 2.2 µM)
- IC50 (PC3 cells): 15.7 ± 3.8 µM
- MIC (S. aureus NCTC 4163): 0.2 µg/mL (≈ 0.439 µM)
- MIC (E. coli 951): > 25.6 µg/mL
